Measured values published in patent US11351218B2, “Composition for preventing or treating glioblastoma comprising Platycodon grandiflorum A. De Candolle, Scutellaria baicalensis, Phellodendron amurense Ruprecht or Rubus coreanus” (University-Industry Cooperation Group of Kyung Hee …, priority 2019, dated 2022).

How the values were obtained:
[1] = tested on: U87MG and U373MG cells; assay: Cell morphology (vacuole formation) under optical microscope, GBM cells; type: cell-based, human; conditions: 10 μM PD, 24 hours
Method: FIGS. 6A and 6B show the results that PD induces a decrease in cell viability and vacuole formation. […] Data shown represent the means of quintuplicate measurements which were repeated three times. The results are presented as a percentage of control (means±SD).
Inhibition of autophagy has been reported to cause cancer cell death. Therefore, the cytotoxic effects of PD on U87MG, U373MG, and normal astrocytes were examined. After treating these cells with various doses of PD for 48 hours, their cell viability was analyzed by WST1 assays. […] As can be confirmed in FIG. 6B, morphological changes were also visualized by an optical microscope after exposure of GBM cells to 10 μM PD for 24 hours.

[2] = tested on: U87MG and U373MG cells; assay: Cholesterol cell-based detection assay (filipin III staining) in GBM cells; design: species or system human; conditions: PD 10 μM or U18666a 1 μM, 24 hours
Method: FIGS. 15A and 15B show the results that PD promotes accumulation of cholesterol in lysosomes. Cells were treated with DMSO, PD (10 μM), or U18666a (1 μM) for 24 hours. […] Total cholesterol levels are expressed in cholesterol (μg) per protein (mg) of cell lysate and are shown as means±SD from two independent experiments.
Cells grown on coverslips were treated with the materials. Then, the cells were fixed with 4% PFA at room temperature for 10 minutes. The solution of Filipin III (Cayman) was added for staining of […] cholesterol and the samples were incubated in a dark room for 30 minutes. The images were examined under a Zeiss laser confocal microscope.
The present inventors concluded that PD inhibits the maturation of autophagosome into autolysosomes by inhibiting lysosomal degradation and an autophagosome-lysosome fusion in GBM cells. […] To examine whether the defect in the autophagosome-lysosome fusion by PD is due to altered intracellular cholesterol levels, the PD-treated GBM cells were stained with filipin-III, which is a fluorescent dye that binds to cholesterol. […] As can be confirmed in FIG. 14A, this filipin-III staining pattern is very similar to that found in GBM cells treated with U18666A, implying that PD blocks cholesterol release from lysosome and accumulates cholesterol in lysosomes.

[3] = tested on: A549, H358, MCF7, HT29 and HepG2 cells; assay: Immunoblot of LC3B and SQSTM1 in several cancer cell lines; type: cell-based; conditions: 24 hours, dose-dependent, all cancer cells tested
Method: After treatment with indicated concentrations of PD or PG for 24 hours, the protein levels of LC3B and SQSTM1 were detected by immunoblot analysis in several cancer cell lines including A549 and H358 (lung cancer), MCF7 (breast cancer), HT29 (colon cancer), and HepG2 (liver cancer). GAPDH was used as a loading control.
Cells treated with the concentrations and materials described in FIGS. 1-3B, 7, 8, 10, 13, 16, 18, and 20 were lysed in buffer containing 20 mM Tris-HCl (pH 7.5), 150 mM NaCl, 1 mM EDTA, 1 mM Na2EDTA, 1 mM EGTA, 1% NP-40, 1% sodium deoxycholate, 1 mM Na3VO4, 1 mM MPI, 1 mM PMSF, and PI cocktails for 15 to 20 minutes on ice. Cell lysates were separated by SDS-PAGE and transferred to nitrocellulose membranes. Immunodetection was performed with the following primary antibodies: rabbit anti-LC3B, rabbit anti-cathepsin B, rabbit-anti GAPDH (Cell Signaling Technology, Danvers, Mass.), mouse anti-SQSTM1/p62, and goat anti-cathepsin D (Santa CruzKPL, Gaithersburg, Md., USA) were incubated at room temperature for 1 hour. The protein bands were detected with ECL western Blotting Substrate (Thermo Fisher Scientific, Waltham, Mass., USA).
In these studies, they were carried out to examine the accumulation of LC3B-II without checking p62 levels upon PD treatment and conclusions were drawn that PD acts as an inducer of autophagic cell death in these cancer cells. […]

[4] = tested on: U87MG and U373MG cells; assay: DQ Red-BSA trafficking assay (lysosomal proteolytic activity) in GBM cells; type: cell-based, human; conditions: PD 10 μM or BafA1 (100 μM), 24 hours
Method: Cells were incubated with DMSO, PD (10 μM), or BafA1 (100 μM) for 24 hours, and then the cells were treated with DQ-BSA ([…]) for 30 minutes. Data shown are representative images of each sample. The fluorescence intensity of DQ-BSA was quantified with ImageJ software. More than 100 cells were counted in each condition and the number of puncta per cells is presented as means±SD from three independent experiments.
Cells were placed on coverslips prior to treatment with the materials and continuously loaded with DQ Red-BSA (Invitrogen) at a working concentration of 10 μg/mL in a culture medium at 37° C. for 30 minutes. The cells were fixed in 4% PFA and then subjected to DAPI staining. The images were examined under a Zeiss laser confocal microscope. The number of DQ Red-BSA spots was quantified using ImageJ software.
To confirm the lysosomal activity in PD-treated GBM cells, the DQ-BSA assay was performed to assess lysosomal protein degradation. In DQ-BSA, which is a red BODIPY dye conjugated to bovine serum albumin (BSA), the BSA is so heavily conjugated that the red fluorescence is self-quenched. Upon cleavage of the DQ-BSA by proteolytic enzymes in lysosomal compartments, this quenching is relieved, generating red fluorescence. Thus, DQ-BSA is a useful tool to visualize a lysosomal proteolytic activity.

[5] = tested on: normal astrocytes; assay: BODIPY FL LDL uptake assay, normal astrocytes; type: cell-based, human; conditions: PD 10 μM or U18 1 μM, 24 hours
Method: Cells were treated with DMSO, PD (10 μM), or U18 (1 μM) for 24 hours and subsequently loaded with BODIPY™ FL LDL. BODIPY-LDL uptake was visualized by confocal microscopy. Nuclei were stained with DAPI (blue). Quantification shown on the right graph represents a relative fold change from three independent experiments±SD.
Cells seeded on coverslips were treated with the materials and then the culture medium was replaced with BODIPY™ FL LDL (Thermo Fisher Scientific) at a working concentration of 5 μg/mL in a medium. The cells were additionally incubated at 37° C. for 1 hour. The degree of LDL uptake was measured using a Zeiss laser confocal microscope.
Based on the previous study results of the present inventors that PD increases cell surface LDLR expression and accumulate cholesterol within lysosomes, whether PD can increase the uptake of exogenous LDL was examined Cells pretreated with PD or U18666A were incubated with BODIPY FL-labeled LDL particles for 1 hour and the LDL uptake was observed by a confocal microscope. Upon analysis of these cells, it was observed that PD caused about a 6-fold increase in LDL uptake and it was a level similar to that detected in the U18666A-treated cells.

C[C@@H]1O[C@@H](O[C@H]2[C@H](OC(=O)[C@]34CCC(C)(C)C[C@H]3C3=CC[C@@H]5[C@@]6(C)C[C@H](O)[C@H](O[C@@H]7O[C@H](CO)[C@@H](O)[C@H](O)[C@H]7O)C(CO)(CO)[C@@H]6CC[C@@]5(C)[C@]3(C)C[C@H]4O)OC[C@H](O)[C@@H]2O)[C@H](O)[C@H](O)[C@H]1O[C@@H]1OC[C@@H](O)[C@H](O[C@@H]2OC[C@](O)(CO)[C@H]2O)[C@H]1O [PD, platycodin D]
cell morphology (cytoplasmic vacuoles) [1]: exhibited cytoplasmic vacuoles | cellular cholesterol distribution (filipin-III staining) [2]: induces cholesterol accumulation within intracellular vesicles | level of p62 together with LC3-II [3]: enhanced level | DQ-BSA red fluorescence vs DMSO [4]: significant reduction | LDL uptake [5]: less effective
